Where “and” joins values, the source holds several entries; their conditions need not be identical. Equal values may be shown once.
Conditions: Crystal, Calculated from knudsen effusion weight loss

Nc1cc(Cl)c(Cl)cc1[N+](=O)[O-] [4,5-dichloro-2-nitrobenzenamine]
Conditions | vapor or sublimation pressure
351.32 K | 0.000199 kPa and 0.000196 kPa and 0.000193 kPa
353.21 K | 0.000251 kPa and 0.000243 kPa and 0.000239 kPa
355.25 K | 0.000288 kPa and 0.000286 kPa
357.24 K | 0.000364 kPa and 0.000355 kPa
359.42 K | 0.000463 kPa and 0.000453 kPa and 0.000452 kPa
361.45 K | 0.000565 kPa and 0.000558 kPa and 0.000552 kPa
363.23 K | 0.000665 kPa and 0.000673 kPa and 0.000675 kPa
365.49 K | 0.000831 kPa and 0.000843 kPa and 0.000807 kPa
367.38 K | 0.000995 kPa and 0.000996 kPa and 0.000976 kPa

From the NIST ThermoML archive (doi:10.1016/j.jct.2009.05.013)
